Columns and labels:
[1] = target: MCT1 (monocarboxylate transporter 1) (Rattus norvegicus, UniProt P53987); assay: inhibition of L-[…]lactate uptake in Xenopus oocytes; format: cell-based; conditions: read-out: Inhibitor-insensitive component (%)
[2] = target: T1, MCT2 (monocarboxylate transporter 2) (Rattus norvegicus, UniProt Q63344); assay: as above; format: cell-based; conditions: read-out: % inhibition at 10 nM
T1 sequence (Q63344 1-489): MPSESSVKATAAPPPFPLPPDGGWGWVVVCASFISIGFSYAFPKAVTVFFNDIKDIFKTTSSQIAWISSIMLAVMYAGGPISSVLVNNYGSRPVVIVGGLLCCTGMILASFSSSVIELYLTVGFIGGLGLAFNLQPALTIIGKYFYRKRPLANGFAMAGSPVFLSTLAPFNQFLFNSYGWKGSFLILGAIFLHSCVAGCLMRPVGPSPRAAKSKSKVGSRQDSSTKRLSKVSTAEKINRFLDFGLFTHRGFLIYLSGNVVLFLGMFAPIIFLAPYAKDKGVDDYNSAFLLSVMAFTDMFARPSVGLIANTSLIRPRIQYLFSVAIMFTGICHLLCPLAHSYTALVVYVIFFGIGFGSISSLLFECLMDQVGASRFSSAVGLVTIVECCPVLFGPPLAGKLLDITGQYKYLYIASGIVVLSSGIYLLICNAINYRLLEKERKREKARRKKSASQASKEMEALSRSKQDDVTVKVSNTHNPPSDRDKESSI

CC(O)C(=O)O = assay: cells, lysate or membranes

Chain of MCT1 (monocarboxylate transporter 1) (P53987 whole entry): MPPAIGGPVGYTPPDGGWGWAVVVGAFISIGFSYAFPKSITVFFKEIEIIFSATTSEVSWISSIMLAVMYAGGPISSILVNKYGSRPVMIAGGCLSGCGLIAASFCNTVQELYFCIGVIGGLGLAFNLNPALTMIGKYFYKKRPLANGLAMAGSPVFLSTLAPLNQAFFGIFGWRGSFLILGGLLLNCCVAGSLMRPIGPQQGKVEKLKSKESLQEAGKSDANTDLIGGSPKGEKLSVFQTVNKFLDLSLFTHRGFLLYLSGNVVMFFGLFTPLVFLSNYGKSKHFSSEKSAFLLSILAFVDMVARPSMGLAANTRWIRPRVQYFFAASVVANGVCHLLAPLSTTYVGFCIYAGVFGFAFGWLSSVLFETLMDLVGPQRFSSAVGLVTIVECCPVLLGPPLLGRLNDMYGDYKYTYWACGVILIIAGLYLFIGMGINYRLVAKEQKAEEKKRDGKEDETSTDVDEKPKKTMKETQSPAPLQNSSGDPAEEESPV

Compound	activity at 0.1 µM [1] [%]	inhibition at 0.01 µM [2] [%]	Km (CC(O)C(=O)O) [mM]
Cc1n[nH]c(C)c1Cc1sc2c(c1C(=O)N1C[C@H](O)CO1)c(=O)n(C)c(=O)n2CC(C)C [AR-C155858]	1.9 ± 0.6	~70	
MCT1 (monocarboxylate transporter 1) (Rattus norvegicus)			4.4 ± 1.5

— paper PMC2947196 (2010)
